Experiments:
L. crispatus = assay: MIC against commensal vaginal Lactobacillus strains; assay type: cell-based, Lactobacillus crispatus; conditions: for MIC: Lactobacillus crispatus
L. gasseri = assay: as above; assay type: cell-based, Lactobacillus gasseri; conditions: for MIC: Lactobacillus gasseri
L. jensenii = assay: as above; assay type: cell-based, Lactobacillus jensenii; conditions: for MIC: Lactobacillus jensenii
N. gonorrhoeae = assay: Post-antibiotic effect (PAE) against N. gonorrhoeae; assay type: cell-based, Neisseria gonorrhoeae; conditions: 1 h exposure at 10×MIC
Excerpt: Determining the PAE of a new antimicrobial is an important step for dosing and has clinical importance.

`C[C@@H](c1nc(-c2ccc(C#N)cc2)cs1)[C@](O)(Cn1cncn1)c1cc(F)ccc1F` [Isavuconazole] was tested. Which MIC (L. crispatus; L. crispatus HM-103) did it give?
Its MIC is > 256 µg/mL.

What about the MIC (L. crispatus; L. crispatus HM-371) of the same molecule?
Its MIC is > 256 µg/mL.

And the MIC (L. crispatus; L. crispatus HM-638)?
The MIC was > 256 µg/mL.

What about the “MIC Range” value (L. crispatus; Table 6, L. crispatus (3 strains)) of the same molecule?
Its value is ≥256 µg/mL.

What about the MIC (L. gasseri; L. gasseri HM-407) of the same molecule?
Its MIC is > 256 µg/mL.

And the MIC (L. gasseri; L. gasseri HM-642)?
The MIC was > 256 µg/mL.

And the MIC (L. gasseri; L. gasseri HM-644)?
Its MIC is > 256 µg/mL.

And the MIC (L. gasseri; L. gasseri HM-647)?
Its MIC is > 256 µg/mL.

What about the “MIC Range” value (L. gasseri; Table 6, L. gasseri (4 strains)) of the same molecule?
Its value is ≥256 µg/mL.

And the MIC (L. jensenii; L. jensenii HM-105)?
The MIC was > 256 µg/mL.

What about the MIC (L. jensenii; L. jensenii HM-372) of the same molecule?
The MIC was > 256 µg/mL.

What about the MIC (L. jensenii; L. jensenii HM-374) of the same molecule?
The MIC was > 256 µg/mL.

And the MIC (L. jensenii; L. jensenii HM-639)?
The MIC was > 256 µg/mL.

And the MIC (L. jensenii; L. jensenii HM-640)?
The MIC was > 256 µg/mL.

What about the MIC (L. jensenii; L. jensenii HM-645) of the same molecule?
Its MIC is > 256 µg/mL.

What about the MIC (L. jensenii; L. jensenii HM-646) of the same molecule?
The MIC was > 256 µg/mL.

What about the “MIC Range” value (L. jensenii; Table 6, L. jensenii (7 strains)) of the same molecule?
The value was ≥256 µg/mL.

What about the PAE (N. gonorrhoeae; strain FA 1090) of the same molecule?
The PAE was 10 h.

And the PAE (N. gonorrhoeae; strain WHO P)?
Its PAE is 10 h.

What about the PAE (N. gonorrhoeae; strain WHO Y) of the same molecule?
Its PAE is 10 h.

Reference: patent publication US20250281464A1, “TREATMENT OF PATHOGENIC NEISSERIA SP. INFECTION WITH TRIAZOLE ANTIFUNGAL AGENTS” (Virginia Tech Intellectual Properties, Inc., priority 2022, published 2025)
